Reference: patent publication US20250332112A1, “IONIZABLE CATIONIC LIPIDS FOR LIPID NANOPARTICLES” (GENEVANT SCIENCES GMBH, priority 2022, published 2025)

Key:
[1] = Parent ionizable lipid remaining in liver at 24 h after EGFP mRNA LNP (LC-MS); type: in vivo; conditions: 24 h after IV 0.5 mg/kg EGFP mRNA LNP, female BALB/c mice (n = 4)
[2] = Lipid clearance from liver over time after human OTC mRNA LNP (LC-MS); type: in vivo; conditions: IV 0.5 mg/kg human OTC mRNA LNP, male C57BL/6 mice (n = 4)
Description: (§1) LNP formulations encapsulating ornithine transcarbamylase mRNA were injected intravenously at the specified dose levels to male C57BL/6 mice (6-8 weeks old).
Liver tissues were treated with PBS and homogenized with a FastPrep machine, 3 cycles of 5 m/s×15 s. Homogenates from the PBS-treated control animals was pooled and used for standard curve preparation. Samples were extracted into a deep well plate with 250 μL of an internal suitability standard. Plates were centrifuged for 15 min at 4° C. and 2000 rpm. Analysis was performed using an Agilent 6520 QTOF coupled to an Agilent 1290 UHPLC, using reverse-phase LC separation. Quantitation of the ionizable lipid was by MS/MS against a calibration curve spiked into appropriately matched blank matrix. Calibration used a similar class of synthetic lipid as internal standard.
At various timepoints post-dose, lipid levels were assessed in the liver. Some novel ionizable lipids reported more rapid clearance rates compared to the benchmark (Table 19).

[3] = test system: EGFP expression in the liver; experiment: Dose response of EGFP mRNA LNP, EGFP expression in liver; type: in vivo; conditions: 24 h, female BALB/c mice (n = 4)
Description: At 24 h post-dose, the novel lipid formulations reported dose-dependent increases in EGFP expression in the liver (Table 32).

[4] = Parent ionizable lipid remaining in liver at 6 h after luciferase mRNA LNP (LC-MS); type: in vivo; conditions: 6 h after IV 0.5 mg/kg Luciferase mRNA LNP
[5] = test system: human OTC expression in the liver; experiment: Dose response of human OTC mRNA LNP, OTC expression in liver (ELISA); type: in vivo; conditions: 24 h, male C57BL/6 mice (n = 4)
Description: as §1
Liver homogenates were prepared with PBS, Halt protease inhibitor cocktail and FastPrep homogenization, standardized to 2 mg/mL protein with a BCA Protein Assay, and then analyzed by ELISA. Briefly, samples were diluted with PBS and plated on Nunc Maxisorp plates. A standard curve using human […] protein was prepared from the naïve animal controls (vehicle). After 2 h incubation the plates were washed, and the primary antibody was added. After 1 h incubation, the secondary antibody was added and incubated for another hour. After washing, TMB Substrate was added for color development and the reaction was stopped with 2 N sulfuric acid. The plate was read at 450/570 OD.
At 24 h post-dose, the novel lipid formulations reported dose-dependent increases in human OTC expression in the liver (Table 15).

[6] = test system: EGFP expression in the liver; experiment: EGFP expression in liver after intravenous EGFP mRNA LNP (ELISA); conditions: 0.5 mg/kg IV, 24 h post-IV administration, BALB/c mice (n = 4)

CCCCC/C=C\CCCC(CCC/C=C\CCCCC)C(CCC/C=C\CCCCC)OC(=O)CCCCN(C)C (centres unmarked) [Compound 13-B43, reference compound]
Parent ionizable lipid remaining in liver, Average ([1]; Table 28): 38.48 nmol/g liver | Parent ionizable lipid remaining in liver, Average ([1]; Table 29): 29.77 nmol/g liver | Parent ionizable lipid remaining in liver, Average ([1]; Table 30): 50.86 nmol/g liver | Parent ionizable lipid remaining in liver, Average ([1]; Table 31): 23.9 nmol/g liver | Parent ionizable lipid remaining in liver, Average ([2]; 0.25 h post-dose): 29.17 nmol/g liver | Parent ionizable lipid remaining in liver, Average ([2]; 1 h post-dose): 46.37 nmol/g liver | Parent ionizable lipid remaining in liver, Average ([2]; 3 h post-dose): 63.61 nmol/g liver | Parent ionizable lipid remaining in liver, Average ([2]; 6 h post-dose): 45.23 nmol/g liver | Parent ionizable lipid remaining in liver, Average ([2]; 24 h post-dose): 40.01 nmol/g liver | Parent ionizable lipid remaining in liver, Average ([2]; 168 h post-dose): 34.42 nmol/g liver | EGFP expression ([3]; 0.3 mg/kg IV): 3.65e+07 pg EGFP/g liver | EGFP expression ([3]; 1 mg/kg IV): 1.88e+08 pg EGFP/g liver | EGFP expression ([3]; 3 mg/kg IV): 4.4e+08 pg EGFP/g liver | Parent ionizable lipid remaining in liver, Average ([4]; Table 16, female BALB/c mice (n = 4)): 22.64 nmol/g liver | Parent ionizable lipid remaining in liver, Average ([4]; Table 17, female mice (n = 4)): 43.87 nmol/g liver | Parent ionizable lipid remaining in liver, Average ([4]; Table 18, female BALB/c mice (n = 4)): 63.32 nmol/g liver | Human OTC expression ([5]; 0.3 mg/kg IV): 908 ng hOTC/mg protein in liver | Human OTC expression ([5]; 1 mg/kg IV): 6651 ng hOTC/mg protein in liver | Human OTC expression ([5]; 3 mg/kg IV): 12413 ng hOTC/mg protein in liver | EGFP ([6]; Table 24): 3.75E+07 pg/g liver | EGFP ([6]; Table 25): 9.74E+04 pg/g liver | EGFP ([6]; Table 26): 5.23E+07 pg/g liver | EGFP ([6]; Table 27): 6.46E+07 pg/g liver
